Experimental data reported in patent US9504660B2, “Retinaldehyde mimetics and inhibitors of retinaldehyde dehydrogenase I in the treatment of disorders” (THE BRIGHAM AND WOMEN'S HOSPITAL, INC., priority 2012, dated 2016).

Key:
Aldh1a1 = Aldh1a1 expression in tissues of ASO-treated C57Bl/6J mice; format: in vivo
Experimental: (§1) Aldh1a1-deficient (Aldh1a1^4″) mice were backcrossed to a C57BL/6J background (>20 generations). Mice were kept on a standard chow diet with a Vitamin A content of 15 IU/g or on high-fat diet (60% kcal fat, Research Diets, New Brunswick, N.J.) as indicated. Mice had free access to food and water except as indicated under Harvard Medical School Institutional Animal Care and Use Committee guidelines. Experiments were conducted using 12-14 week old female mice unless otherwise indicated.
(§2) An ASO targeting murine Aldh1a1 and a control ASO not hybridizing to any known murine RNA sequences were synthesized and purified by Isis Pharmaceuticals Inc. (Carlsbad, Calif.) as described previously^39. In vitro characterization including knockdown validation of the Aldh1a1 ASO was done in murine primary hepatocytes. ASOs (70 mg/kg/wk) were administered via intraperitoneal (i.p.) injection twice weekly.
(§3) Total RNA was extracted (RNeasy, Qiagen, Hi[den, Germany), DNase-treated (Qiagen), and reverse-transcribed to cDNA. Gene expression, normalized to 36B4, was analyzed by quantitative real-time RT-PCR (Sybr Green, 96 well plates) using a MyiQ cycler (Bio-Rad, Hercules, Calif.). Primer sequences are available upon request.
Homogenized tissue was lysed in RIPA buffer (Boston Bioproducts, Ashland, Mass.) containing protease and phosphatase inhibitors. Standard Western blotting was performed using rabbit polyclonal antibody against UCP-1, rabbit monoclonal antibody against Aldh1a1 (both Abcam, Cambridge, UK), GAPDH and f3-Tubulin (both Santa Cruz Biotechnology). Proteins were detected by chemiluminescence (GE HealthCare Amersham, Amersham, UK).

[1] = Core body temperature under ambient and cold-induced conditions in ASO-treated mice; format: in vivo; conditions: versus Ctrl ASO-treated mice
Experimental: as §2
Core body temperature was assessed in mice as before^49,41. WT and Aldh1a1^−/− mice (12 week old, n=6/group) were anesthetized (Ketamine/Xylazine/Acepromazine, 100/10/3 mg/kg i.p.) and a telemetric temperature probe (E-mitter, MiniMitter, Bend, Oreg.) was implanted intra-abdominally. One week after surgery, mice were single-housed in open-circuit Oxymax chambers as part of the Comprehensive Lab Animal Monitoring System (CLAMS; Columbus Instruments, Columbus, Ohio)^42. Oxymax chambers were kept in a temperature enclosure with 12 h light/dark cycles at 23° C. and mice had ad-libitum access to food and water. After a 48 h acclimatization phase, core body temperature was recorded every 10 min for 48 h at ambient temperature (23° C.), followed by 48 h cold stimulation (4° C.). After sacrifice, fat depots were dissected and analyzed.

[2] = Glucose and insulin tolerance tests in high-fat diet fed obese mice; format: in vivo; conditions: HFD obese mice, compared to control ASO
Experimental: as §2
Glucose (GTT) and insulin tolerance tests (ITT) were performed on mice after fasting (12 h and 6 h, respectively). Mice were injected i.p. either with D-glucose (Sigma, 0.75 g/kg body weight) or recombinant human regular insulin (0.5 U/kg body weight, Humulin R, Eli Lilly, Indianapolis, Ind.); blood glucose concentrations were measured periodically up to 120 min by glucometer (Abbott Laboratories, Abbott Park, Ill.).

[3] = Established diet-induced obesity in high-fat diet fed C57Bl/6J mice, body weight and fat depot mass; format: in vivo; conditions: HFD 8 weeks before treatment, continued HFD additional 9 weeks, compared to control ASO
Experimental: as §1, §2

UCP-1 [4] = experiment: UCP-1 expression in fat depots of ASO-treated C57Bl/6J mice; format: in vivo; conditions: chow-fed mice, i.p. 35 mg/kg/dose twice a week for 6 weeks
Experimental: as §1, §2
(§4) Total RNA was extracted (RNeasy, Qiagen, Hi[den, Germany), DNase-treated (Qiagen), and reverse-transcribed to cDNA. Gene expression, normalized to 36B4, was analyzed by quantitative real-time RT-PCR (Sybr Green, 96 well plates) using a MyiQ cycler (Bio-Rad, Hercules, Calif.). […]
Homogenized tissue was lysed in RIPA buffer (Boston Bioproducts, Ashland, Mass.) containing protease and phosphatase inhibitors. […] Proteins were detected by chemiluminescence (GE HealthCare Amersham, Amersham, UK).

[5] = tested on: RXRa ligand binding domain (LBD); experiment: Cell-free TR-FRET assay, PGC-1a recruitment to RXRa LBD; format: biochemical
UCP-1 promoter = UCP-1 promoter luciferase reporter in undifferentiated 10T1/2 cells; format: cell-based, murine; conditions: 24 h, increasing concentrations / 1 pM
Experimental: (§5) Cell lysates were harvested 48 h post transfection and luciferase activity quantified by standard luminometer assay and normalized to 3-galactosidase.

RAR = conditions: ligand displacement assays, reference 37; cited from earlier work
[6] = tested on: retinoic acid response element (RARE) luciferase reporter; experiment: RARE luciferase reporter in undifferentiated 10T1/2 cells; format: cell-based, murine; conditions: 24 h, concentration-dependent
Experimental: as §5

UCP-1 [7] = experiment: UCP-1 gene expression in 10T1/2 cells during adipogenic differentiation; format: cell-based, murine; conditions: for effect on Rald-mediated UCP-1 expression: antagonist with Rald
Experimental: (§6) C3H10T1/2, isolated human stromal-vascular cells and Aldh1a1^−/− MEFs were cultured and differentiated as previously described^8. Briefly, cells were grown to confluence in DMEM, 10% fetal bovine serum (FBS) and 1% penicillin/streptomycin followed by standard adipogenic induction (20 nM insulin, 1 nM T3, 0.5 mM isobutylmethylxanthine, […], 0.125 mM indomethacin) and stimulation with retinoids, retinoid antagonists or vehicle (DMSO) as indicated. After a 48 h induction phase, growth media was supplemented with insulin, T3, and indicated retinoids which were changed every other day up to day 6.
as §3

RXR = experiment: 9cisRA-induced Cyp26a1 expression in 10T1/2 cells; format: cell-based, murine; conditions: data not shown
Experimental: as §6, §3

UCP-1 [8] = experiment: UCP-1 gene expression in Aldh1a1-/- mouse embryonic fibroblast (MEF)-derived adipocytes; format: cell-based; conditions: stimulation 24 h, versus vehicle-treated cells
Experimental: (§7) Abdominal subcutaneous fat biopsies were obtained from a subject undergoing gastric bypass surgery who gave written informed consent. Fat biopsies were immediately washed with phosphate buffered saline (PBS), minced, and digested (1 mg/mi collagenase, 45 min, 37° C.) in DMEM containing 1% BSA. Digested tissues were filtered through sterile 150 µm nylon mesh and centrifuged (250 g, 5 min). The floating fractions containing adipocytes were discarded and they stromal-vascular fraction pellet was resuspended in erythrocyte lysis buffer (154 mM NH4CI, 10 mM KHCO3, 0.1 mM EDTA, 10 min) to remove red blood cells. The cells were further centrifuged at 500 g for 5 min, plated on a 24-well culture dish and grown, and differentiated to mature adipocytes as described below. MEFs were isolated from Aldh1a1^−/− embryos at embryonic day 14.5 using standard tech niques^43.
(§8) C3H10T1/2, isolated human stromal-vascular cells and Aldh1a1^−/− MEFs were cultured and differentiated as previously described^8. […]
as §4

3T3-L1 cells = conditions: reference 16; cited from earlier work
UCP-1 promoter region = experiment: Chromatin immunoprecipitation (ChIP) at the UCP-1 promoter region in 10T1/2 cells; format: cell-based, mouse
Experimental: ChIP was performed in Rald versus vehicle stimulated C3H10T1/2 adipocytes using EZ-Magna ChIP™ kit following manufacturer's instructions (Millipore, Billerica, Mass.) and RARa, PGC-1a, or rabbit lgG antibodies as a negative control (all Santa Cruz). lmmunoprecipitated DNA was amplified by real-time PCR using primers specific for the mouse UCP-1 promoter region. Relative PGC-la and RARa occupancy at the UCP-1 promoter was determined normalized to input DNA

[9] = target: T1, RARa ligand binding domain (LBD) (Homo sapiens, UniProt P10276); experiment: Cell-free TR-FRET assay, PGC-1a recruitment to RARa LBD; format: biochemical
T1 construct: purchased Invitrogen
T1 sequence (P10276 183-417 limits assumed): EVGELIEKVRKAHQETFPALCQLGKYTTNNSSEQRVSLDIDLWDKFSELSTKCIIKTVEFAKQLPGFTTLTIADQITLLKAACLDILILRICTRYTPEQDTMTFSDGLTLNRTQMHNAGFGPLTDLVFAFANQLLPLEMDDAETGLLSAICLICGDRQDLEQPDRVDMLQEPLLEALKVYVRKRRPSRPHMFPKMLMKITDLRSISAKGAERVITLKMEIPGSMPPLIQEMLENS
Experimental: Lanthascreen” TR-FRET RARa and RXR13 coactivator assays (Invitrogen) were performed as per manufacturer protocol using a PerkinElmer (Waltham, Mass.) EnVision™ fluorescence plate reader.

UCP-1 [10] = experiment: UCP-1 mRNA in shAldh1a1-transfected 10T1/2 cells; format: cell-based, murine; conditions: Rald stimulation (1 pM) in shAldh1a1-treated 10T1/2 cells
Experimental: as §6
Mission® shRNA constructs targeting Aldh1a1 and a non-targeting control shRNA were purchased from Sigma. To generate lentivirus particles, shRNA constructs were transfected into HEK293TN cells (SA Biosciences, Frederick, Md.) along with the packaging vectors psPAX and pM2DG. After 72 h, virus-containing supernatant was precipitated using polyethylene glycol (SA Biosciences) and concentrated in PBS (30×). […]
as §4

UCP-1 [11] = experiment: UCP-1 expression in differentiating human stromal-vascular cells from subcutaneous fat biopsies; format: cell-based; conditions: 1 pM during differentiation
Experimental: as §7, §8, §4

[12] = chow-fed mice, i.p. 35 mg/kg/dose twice a week for 6 weeks, compared to Ctrl ASO
[13] = each 1 pM, differentiating 10T1/2 cells
[14] = 1 pM during adipogenic differentiation

Aldh1a1 ASO: ASO targeting murine Aldh1a1, synthesized by Isis Pharmaceuticals; sequence AACACGACTATGCTGGTTAC (SEQ ID NO: 01) (listed as DNA, chemistry not given here)
Aldh1a1 expression in subcutaneous WAT (Aldh1a1; administered systemically): no effect
Aldh1a1 expression in visceral WAT (Aldh1a1; administered systemically): decrease
Aldh1a1 expression in SWAT, BAT, spleen, intestine, and skeletal muscle (Aldh1a1; [12]): remained unchanged
Aldh1a1 mRNA and protein levels in liver and GWAT (Aldh1a1; [12]): significantly decreased
core body temperature on cold exposure ([1]; 4° C., 48 h): protected significantly
core body temperature at ambient temperature ([1]; 23° C.): did not differ
glucose tolerance [2]: improved
insulin tolerance [2]: improved
GWAT mass [3]: decreased
weight gain in obese mice [3]: significantly limited
UCP-1 expression in GWAT (UCP-1 [4]): significantly increased
UCP-1 expression in SWAT or BAT (significant increase) (UCP-1 [4]): not

CC1=C(/C=C/C(C)=C\C=C\C(C)=C\C(=O)O)C(C)(C)CCC1 [9cisRA, reference compound]
PGC-1a recruitment to RXRa [5]: potently recruited

CC1=C(/C=C/C(C)=C/C=C/C(C)=C/CO)C(C)(C)CCC1 [retinol]
UCP-1 promoter luciferase activity (UCP-1 promoter): not and failed to induce
binding to RAR (RAR): can bind

CC1=C(/C=C/C(C)=C/C=C/C(C)=C/C(=O)O)C(C)(C)CCC1 [ATRA, all-trans RA, reference compound]
activity of a canonical RARE luciferase reporter [6]: significantly increased

Cc1ccc(C2=CCC(C)(C)c3ccc(C#Cc4ccc(C(=O)O)cc4)cc32)cc1 [AGN193109, reference compound]
effect on Rald-mediated UCP-1 expression (UCP-1 [7]; [13]): completely inhibited

CN1c2ccc([N+](=O)[O-])cc2N=C(c2ccc(C(=O)O)cc2)c2cc3c(cc21)C(C)(C)CCC3(C)C [HX531, reference compound]
9cisRA-induced expression of the RA target gene Cyp26a1 (RXR): significantly inhibit
effect on Rald-mediated UCP-1 expression (UCP-1 [7]; [13]): did not alter

CC1=C(/C=C/C(C)=C/C=C/C(C)=C/C=O)C(C)(C)CCC1 [Rald, all trans-Retinal]
UCP-1 gene expression increase (UCP-1 [8]): 40 fold
UCP-1 promoter luciferase activity (UCP-1 promoter): increased
binding to RAR (RAR): can bind
expression of other BAT markers including PGC-16, PRDM16, and Cidea (UCP-1 [7]; [14]): induced
expression of the adipogenic gene aP2 (UCP-1 [7]; [14]): remained unaltered
UCP-1 expression induction (UCP-1 [7]; 1 pM during adipogenic differentiation of 10T1/2 cells (white adipocytes)): 100 fold
UCP-1 expression (UCP-1 [7]; co-stimulation with the Aldh inhibitor DEAB, each 1 pM, differentiating 10T1/2 cells): to the same extent as Rald alone
activity of a canonical RARE luciferase reporter [6]: significantly increased
PGC-1a recruitment to RXRa [5]: virtually no effect
adipogenesis in 3T3-L1 cells (3T3-L1 cells): inhibitor
PGC-1a occupancy at the UCP-1 promoter region, enrichment (UCP-1 promoter region; Rald 1 pM during adipocyte differentiation): 5 fold
RARa signal at the UCP-1 promoter (UCP-1 promoter region; after stimulation, versus basal conditions): did not increase further
EC50 [9]: 82 nM
PGC-1a recruitment to RARa [9]: effectively recruited
UCP-1 mRNA expression increase (UCP-1 [10]): 100 fold
UCP-1 expression (UCP-1 [11]): significantly increased
